# From ChEMBL document CHEMBL3853265 (Medchemcomm, 2016)
# Tests used:
# BCRP (ABCG2) = target: T1, BCRP (ABCG2) (Homo sapiens, UniProt Q9UNQ0); test: Substrate activity at BCRP (unknown origin) assessed as efflux ratio of permeability; assay type: ADME; settings: not told
# T1 sequence (Q9UNQ0 whole entry): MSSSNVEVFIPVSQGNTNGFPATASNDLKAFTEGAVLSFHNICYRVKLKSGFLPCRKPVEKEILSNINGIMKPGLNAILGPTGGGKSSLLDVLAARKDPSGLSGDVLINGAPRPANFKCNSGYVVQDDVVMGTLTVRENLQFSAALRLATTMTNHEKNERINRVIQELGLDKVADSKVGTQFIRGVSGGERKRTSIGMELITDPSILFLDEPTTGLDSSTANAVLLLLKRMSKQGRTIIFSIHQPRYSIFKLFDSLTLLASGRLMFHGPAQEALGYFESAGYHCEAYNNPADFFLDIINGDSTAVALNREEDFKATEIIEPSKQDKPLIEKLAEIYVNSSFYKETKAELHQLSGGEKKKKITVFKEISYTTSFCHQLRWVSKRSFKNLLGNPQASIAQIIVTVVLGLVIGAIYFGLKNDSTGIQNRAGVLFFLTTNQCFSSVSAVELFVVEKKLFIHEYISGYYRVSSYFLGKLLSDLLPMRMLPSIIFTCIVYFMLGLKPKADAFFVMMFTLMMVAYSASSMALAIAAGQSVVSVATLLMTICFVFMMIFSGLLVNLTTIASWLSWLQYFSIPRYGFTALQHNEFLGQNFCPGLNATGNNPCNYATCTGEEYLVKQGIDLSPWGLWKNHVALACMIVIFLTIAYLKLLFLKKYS
# Cytochrome P450 1A2 = target: T2, Cytochrome P450 1A2 (Homo sapiens, UniProt P05177); test: Inhibition of CYP1A2 (unknown origin); assay type: ADME
# T2 sequence (P05177 whole entry): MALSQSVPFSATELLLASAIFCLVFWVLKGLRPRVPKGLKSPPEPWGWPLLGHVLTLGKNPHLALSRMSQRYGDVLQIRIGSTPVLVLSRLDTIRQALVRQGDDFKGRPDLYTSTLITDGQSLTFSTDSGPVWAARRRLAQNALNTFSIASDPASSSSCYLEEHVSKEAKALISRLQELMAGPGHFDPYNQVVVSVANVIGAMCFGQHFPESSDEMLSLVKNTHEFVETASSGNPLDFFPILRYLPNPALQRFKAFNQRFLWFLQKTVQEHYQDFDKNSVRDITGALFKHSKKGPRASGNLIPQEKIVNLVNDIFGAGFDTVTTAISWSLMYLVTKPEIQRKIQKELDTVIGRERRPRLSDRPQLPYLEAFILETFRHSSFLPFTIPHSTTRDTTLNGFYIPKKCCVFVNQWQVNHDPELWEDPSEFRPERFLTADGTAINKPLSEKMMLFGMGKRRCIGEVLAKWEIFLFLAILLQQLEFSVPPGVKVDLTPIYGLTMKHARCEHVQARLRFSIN
# Cytochrome P450 2C8 = target: T3, Cytochrome P450 2C8 (Homo sapiens, UniProt P10632); test: Inhibition of CYP2C8 (unknown origin); assay type: ADME
# T3 sequence (P10632 whole entry): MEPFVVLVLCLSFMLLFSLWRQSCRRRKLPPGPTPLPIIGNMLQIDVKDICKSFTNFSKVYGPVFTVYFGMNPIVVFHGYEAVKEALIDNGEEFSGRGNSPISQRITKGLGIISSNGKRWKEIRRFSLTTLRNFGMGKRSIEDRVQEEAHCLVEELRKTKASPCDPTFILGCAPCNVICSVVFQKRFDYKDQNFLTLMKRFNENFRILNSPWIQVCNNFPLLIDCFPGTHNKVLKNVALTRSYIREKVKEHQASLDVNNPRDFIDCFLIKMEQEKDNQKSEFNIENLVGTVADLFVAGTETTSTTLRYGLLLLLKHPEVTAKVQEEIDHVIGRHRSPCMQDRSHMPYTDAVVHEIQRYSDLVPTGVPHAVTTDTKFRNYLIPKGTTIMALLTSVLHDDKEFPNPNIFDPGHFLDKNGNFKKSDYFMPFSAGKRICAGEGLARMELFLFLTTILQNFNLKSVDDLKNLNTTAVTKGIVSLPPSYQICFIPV
# Cytochrome P450 3A4 = Cytochrome P450 3A4 (Homo sapiens, UniProt P08684); test: Inhibition of CYP3A4 (unknown origin); assay type: ADME
# [1] = Unbound clearance in dog at 0.363 mg/kg, iv and 0.737 mg/kg, po; assay type: ADME, organism-based, Canis lupus familiaris; settings: in vivo
# [2] = Half life in dog at 0.363 mg/kg, iv and 0.737 mg/kg, po; assay type: ADME, organism-based, Canis lupus familiaris; settings: in vivo
# [3] = Drug recovery in bile of bile duct cannulated rat; assay type: ADME; settings: read-out: Drug recovery
# [4] = Drug metabolism in human liver microsomes assessed as monooxidation at phenyl and pyridine moieties; assay type: ADME
# [5] = Drug metabolism in rat liver microsomes assessed as monooxidation at phenyl and pyridine moieties; assay type: ADME
# [6] = Drug metabolism in dog liver microsomes; assay type: ADME, Canis lupus familiaris
# [7] = Drug metabolism in rat hepatocytes assessed as monooxidation; assay type: ADME, cell-based, Hepatocyte
# [8] = Drug metabolism in rat hepatocytes assessed as monooxidation and glucuronidation; assay type: ADME, cell-based, Hepatocyte
# Rattus norvegicus [9] = test: Toxicity in Wistar Han rat assessed as increase in lymphocyte counts at >= 30 mg/kg/day, po administered for 14 days; assay type: organism-based; settings: in vivo, 336 h
# Rattus norvegicus [10] = test: Toxicity in Wistar Han rat assessed as centrilobular hepatocyte hypertrophy at 100 mg/kg/day, po administered for 14 days; assay type: organism-based; settings: hepatocytes, 336 h
# [11] = Unbound Cmax in Wistar Han rat at 10 mg/kg, po […] measured on day 14; assay type: ADME, organism-based; settings: in vivo
# [12] = Average plasma concentration in Wistar Han rat at 10 mg/kg, po administered as single dose measured on day 14; assay type: ADME, organism-based; settings: in vivo
# [13] = Toxicity in po dosed dog assessed as drug tolerance administered as single dose; assay type: organism-based, Canis lupus familiaris; settings: in vivo
# [14] = Toxicity in po dosed dog administered as single dose; assay type: organism-based, Canis lupus familiaris; settings: in vivo
# [15] = Toxicity in dog assessed as increase in body temperature at 100 mg/kg, po administered as single dose; assay type: organism-based, Canis lupus familiaris; settings: in vivo
# [16] = Toxicity in dog assessed as increase in body temperature at 10 mg/kg, po administered as single dose; assay type: organism-based, Canis lupus familiaris; settings: in vivo
# [17] = Toxicity in dog assessed as increase in body temperature at 30 mg/kg, po administered as single dose; assay type: organism-based, Canis lupus familiaris; settings: in vivo
# [18] = Toxicity in dog assessed as emesis at 30 mg/kg, po administered as single dose measured 30 mins post dose; assay type: organism-based, Canis lupus familiaris; settings: in vivo, 0.5 h
# [19] = Toxicity in dog assessed as appearance of red mucous membranes of the gum at 30 mg/kg, po administered as single dose; assay type: organism-based, Canis lupus familiaris; settings: in vivo
# [20] = Toxicity in dog assessed as increase in heart rate at 30 mg/kg, po administered as single dose; assay type: organism-based, Canis lupus familiaris; settings: in vivo
# [21] = Unbound Cmax in dog at 10 mg/kg, po administered as single dose; assay type: ADME, organism-based, Canis lupus familiaris; settings: in vivo
# [22] = Unbound Cmax in dog at 30 mg/kg, po administered as single dose; assay type: ADME, organism-based, Canis lupus familiaris; settings: in vivo
# [23] = Oral bioavailability in dog at 3 mg/kg; assay type: ADME, organism-based, Canis lupus familiaris; settings: in vivo
# Rattus norvegicus [24] = test: Toxicity in Wistar Han rat assessed as moribundity at 300 mg/kg, po administered as single dose; assay type: organism-based; settings: in vivo
# [25] = Unbound Cmax in Wistar Han rat at 100 mg/kg, po […] measured on day 14; assay type: ADME, organism-based; settings: in vivo
# Cytochrome P450 3A4, sequence (P08684 whole entry): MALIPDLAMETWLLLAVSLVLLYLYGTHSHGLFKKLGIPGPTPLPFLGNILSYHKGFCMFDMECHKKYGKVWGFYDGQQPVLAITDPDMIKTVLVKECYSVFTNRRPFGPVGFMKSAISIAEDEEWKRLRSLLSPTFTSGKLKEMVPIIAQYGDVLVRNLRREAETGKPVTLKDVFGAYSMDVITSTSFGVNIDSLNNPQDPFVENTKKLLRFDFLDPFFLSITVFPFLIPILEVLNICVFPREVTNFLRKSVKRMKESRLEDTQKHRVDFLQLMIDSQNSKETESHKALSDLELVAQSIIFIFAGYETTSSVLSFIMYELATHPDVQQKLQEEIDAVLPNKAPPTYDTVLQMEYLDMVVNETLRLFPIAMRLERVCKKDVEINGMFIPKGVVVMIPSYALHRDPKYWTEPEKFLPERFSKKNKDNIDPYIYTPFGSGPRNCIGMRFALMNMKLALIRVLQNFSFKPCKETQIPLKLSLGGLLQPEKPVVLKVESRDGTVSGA
smiles,measurement,setting,value
O=S(=O)(Nc1ccc(C(F)(F)F)nc1)c1ccccc1C(F)(F)F,efflux ratio,BCRP (ABCG2),3.3
same,IC50,Cytochrome P450 1A2,> 30 µM
same,IC50,Cytochrome P450 2C8,> 30 µM
same,IC50,Cytochrome P450 3A4,> 30 µM
same,CL free,[1],1.4 mL/min/kg
same,half-life,[2],103 h
same,dose excreted,[3],< 1%
same,Drug metabolism,[4],Metabolite_Detected
same,Drug metabolism,[5],Metabolite_Detected
same,Drug metabolism,[6],Metabolite_Notdetected
same,Drug metabolism,[7],Metabolite_Detected
same,Drug metabolism,[8],Metabolite_Detected
same,Activity,Rattus norvegicus [9],Non-Toxic
same,Activity,Rattus norvegicus [10],Non-Toxic
same,fCmax,[11],530 nM
same,Cave,[12],422 nM
same,Activity,[13],<= 30 mg kg-1
same,MTD,[14],100 mg/kg
same,Activity,[15],Toxic
same,deltaT,[16],< 0.4 °C
same,deltaT,[17],> 1.1 °C
same,Activity,[18],Toxic
same,Activity,[19],Toxic
same,Activity,[20],Toxic
same,fCmax,[21],1498 nM
same,fCmax,[22],3.754 µM
O=S(=O)(Nc1cncc(C(F)(F)F)c1)c1ccccc1C(F)(F)F,bioavailability,[23],145%
same,Activity,Rattus norvegicus [24],Toxic
same,fCmax,[25],2153 nM
